Values quoted from earlier work as cited in patent US20260373126A1, “COMPOSITIONS AND METHODS OF TREATING CANCER” (Board of Supervisors of Louisiana State University and …, priority 2022, published 2026).

Tested on: mitochondrial respiration
Conditions: reference 2

CC(C)OC(=O)C(C)(C)Oc1ccc(C(=O)c2ccc(Cl)cc2)cc1 [FF, Fenofibrate]
mitochondrial respiration: blocked mitochondrial respiration
